From patent EP0218688B1, “DIHALO-STATINE SUBSTITUTED RENIN INHIBITORS” (THE UPJOHN COMPANY, priority 1985, dated 1986)

Molecular target: T1, renin (Homo sapiens, UniProt P00797)
T1 construct: Lyophilized human plasma with 0.1% EDTA is obtained from New England Nuclear; tissue New England Nuclear Plasma Renin Activity Control; host or cells: human plasma (lyophilized, reconstituted)
T1 sequence (P00797 67-406): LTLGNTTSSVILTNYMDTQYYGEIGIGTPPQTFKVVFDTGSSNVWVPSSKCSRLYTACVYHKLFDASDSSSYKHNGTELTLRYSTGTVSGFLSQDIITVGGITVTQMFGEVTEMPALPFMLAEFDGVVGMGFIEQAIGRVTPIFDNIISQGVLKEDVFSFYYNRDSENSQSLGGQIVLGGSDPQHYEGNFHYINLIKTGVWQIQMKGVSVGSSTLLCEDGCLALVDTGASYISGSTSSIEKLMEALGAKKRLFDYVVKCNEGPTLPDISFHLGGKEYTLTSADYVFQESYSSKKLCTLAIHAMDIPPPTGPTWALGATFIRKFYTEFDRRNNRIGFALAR
Assay: GAMMACOAT plasma renin activity (PRA) radioimmunoassay, inhibition of angiotensin I generation in reconstituted human plasma
Type: biochemical
Settings: I50 of RIP compared with I50 of the compound, RIP value of the same assay day
Procedure: Lyophilized human plasma with 0.1% EDTA is obtained from New England Nuclear, North Billerica, Massachusetts 01862 as "Plasma Renin Activity Control". This lyophilized plasma is reconstituted, on the day of the assay, with cold sterile distilled water according to directions on the vial. The plasma renin activity (PRA) of the reconstituted plasma is assayed with "GAMMACOAT [^125 Plasma Renin Activity Radioimmunoassay Kit" supplied by Clinical Assays, a Division of Travenol Laboratories, Inc., Cambridge, Massachusetts 02139. The procedure used with these kits is carried out essentially as described in the literature which accompanies them. […]
In the case of renin inhibitory peptide (RIP), […] of the 4°C. blank is added to a GAMMACOAT® tube. […] The tubes are then counted in a gamma counter. The results of the RIP are evaluated with the Rodbard Radioimmunoassay Program and the plasma renin activity (PRA) is expressed as […]. […] In addition to l50 values, relative potencies are also calculated. A relative potency is determined by comparing the 150 of RIP to the l50 of the compound. However, it must be emphasized that relative potencies are calculated from the l50 obtained for RIP on the day the compound is assayed and not from the average 15o for RIP.

relative potency	Compound
6100	CC[C@H](C)[C@H](NC(=O)C(F)(F)C(=O)C(CC(C)C)NC(=O)[C@H](Cc1c[nH]cn1)NC(=O)[C@H](Cc1ccccc1)NC(=O)OC(C)(C)C)C(=O)NCc1ccccn1 (stereo partly drawn) [N-tert-Butyloxycarbonyl-L-phenylalanyl-L-histidyl-2,2-difluoro-statonyl-L-isoleucyl-2-pyridylmethylamide]
1,000	CC[C@H](C)[C@H](NC(=O)C(F)(F)[C@H](O)[C@H](CC(C)C)NC(=O)[C@H](Cc1c[nH]cn1)NC(=O)[C@H](Cc1ccccc1)NC(=O)OC(C)(C)C)C(=O)NCc1ccccn1 [N-tert-Butyloxycarbonyl-L-phenylalanyl-L-histidyl-2,2-difluoro-statyl-L-isoleucyl-2-pyridylmethylamide]
